# Test results taken from patent US8193326B2, “Nucleic acids encoding novel TERT polypeptides” (GemVax AS, priority 2000, dated 2012).
# Tested on: T cells from human peripheral blood mononuclear cells (PBMC)
# Test: Induction and proliferation of human T cell response to peptide (3H-thymidine proliferation assay)
# Type: cell-based
# Conditions: PBMC from four healthy donors primed with peptide-pulsed dendritic cells, re-stimulated with peptide-pulsed autologous PBMC, mean cpm of triplicates
# From the text: In this experiment, peripheral blood mononuclear cells (PBMC) from four healthy humans (donors “14328”, “14313”, “23244” and “23255”) and were isolated and primed for seven days with dendritic cells pulsed with the SEQ ID NO: 11 peptide derived from the hTERT σ-insert polypeptide, followed by two cycles consisting of seven days re-stimulation with peptide-pulsed autologous PBMC. The dendritic cells were derived from monocytes from peripheral blood. T cells from the resulting bulk: culture were tested in triplicate with or without peptide-pulsed antigen presenting cells (APC) before harvesting after 3 days. To measure the proliferative capacity of the cultures, ^3H-thymidine (3.7×10^4 Bq/well) was added to the culture overnight before harvesting. Cultures with non-pulsed APC or without APC served as controls. Further details of the protocol used are set out below.
# T cell clones were obtained from the resulting bulk cultures from non-vaccinated donors 14313 and 23255. […]
# PBMCs were separated out from 50 ml of blood (from buffy coat). The cells were counted and re-suspended in complete RPMI-1640/15% pool serum. […]
# Bulk cultures were harvested and stimulated with irradiated PBMCs and peptide. If there was high cell death, cultures were lymphoprep separated, otherwise they were counted and resuspended in RPMI/15% pool serum. […]
substance,measurement,value
SEQ ID NO: 11: peptide derived from the hTERT σ-insert polypeptide (RVAVLWFNFLFKQKPSVSPRG; listed as Homo sapiens),"proliferative T cell response / peptide-specific T cells (bulk cultures and T cell clones, FIGS. 7-9)",T cells can be expanded in vitro following stimulation with the relevant peptide
